{"source": "patent US12612362B2", "about": "(SHANXI MEDICAL UNIVERSITY, priority 2021, dated 2026)", "key": {"C57BL/6 mice": {"test_system": "C57BL/6 mice", "assay": "Oral glucose tolerance test (OGTT)", "type": "in vivo", "details": "n=7"}, "[1]": {"test_system": "pancreas islets of the rats", "assay": "Insulin secretion of isolated rat pancreas islets (insulin radioimmunoassay)", "details": "for effect of promoting insulin secretion: 30 min incubation, n=7"}}, "note": "Entries after “also recorded” stand apart in the source; their conditions may differ.", "data": [{"smiles": "COc1ccc(C[C@H]2NC[C@H](O)[C@H]2OC(C)=O)cc1", "note": "[anisomycin, (2R,3S,4S)-2-[(4-methoxyphenyl)methyl]-3,4-pyrrolidinediol 3-acetate methyl ester]", "values": [{"measurement": "tolerance to glucose load (blood glucose curve and AUC in OGTT)", "setting": "C57BL/6 mice; 5 mg/kg intraperitoneally, vs control group", "value": "improved to different extents"}, {"measurement": "glucose reducing effect (blood glucose curve and AUC in OGTT)", "setting": "C57BL/6 mice; 15 mg/kg intraperitoneally, vs control group and 5 mg/kg", "value": "more obvious than 5 mg/kg anisomycin in glucose reducing effect"}, {"measurement": "effect of promoting insulin secretion", "setting": "[1]; 2.8 mmol/L glucose (2.8G), 10 μM", "value": "does not have the effect of promoting insulin secretion; also recorded: does not have the effect of promoting secretion of insulin"}, {"measurement": "effect of promoting insulin secretion", "setting": "[1]; 11.1 mmol/L glucose (11.1G), 1 μM", "value": "has the significant effect of promoting insulin secretion"}, {"measurement": "effect of promoting insulin secretion", "setting": "[1]; 11.1 mmol/L glucose (11.1G), 10 μM", "value": "has the significant effect of promoting insulin secretion; also recorded: has the significant effect of promoting secretion of insulin"}, {"measurement": "effect of promoting insulin secretion", "setting": "[1]; 16.7 mmol/L glucose (16.7G), 10 μM", "value": "can still promote secretion of insulin with significant difference"}, {"measurement": "concentration dependence of promoting insulin secretion", "setting": "[1]; 11.1G, 0.1 μM, 1 μM and 10 μM", "value": "concentration-dependent effect of promoting insulin secretion"}]}]}
